# Laboratory results reported in PMC7698860, “Discovery and Design of Novel Small Molecule GSK-3 Inhibitors Targeting the Substrate Binding Site” (International Journal of Molecular Sciences, 2020).
# How the values were obtained:
# [1] = test system: Mouse hippocampal primary neurons; assay: β-catenin immunostaining in hippocampal primary neurons; assay type: cell-based; settings: 4-4 5 μM, CHIR99021 10 μM, 4 h
# Experimental: Hippocampi were isolated from C57BL6/J mice (0–1 day old), and tissues were digested with trypsin type XI (Sigma, Rehovot, Israel, Cat # T1005), and DNase type IV (Sigma, cat #D5025). Cells were suspended in a plating medium including MEM supplemented with 10% FBS, transferrin (0.089 mg/m), GlutaMAX (0.75 U/mL) (Sigma, Cat # 35050-038), insulin (16 μM) (Roche, Basel, Switzerland, Cat # 45865100), and SM1 neuronal supplement (STEMCELL, Seattle, WA, USA, Cat # 05711), and plated on glass coverslips coated with Matrigel (Corning, NY, USA, Cat# 356234) in a 24-well plate. […]
# Primary neuron cells were treated with 4-4 (5 μM), CHIR99021 (10 μM) (Merck, MA, USA), or, vehicle (DMSO/1%Tween 80) for 4 hr. Cells were fixed with 4% PFA and immunostained with anti-βcatenin and anti-MAP2 (Sypnactic System, Goettingen, Germany, A neuronal marker) antibodies. βcatenin signal was evaluated by Image J software using co-localization finder plugin (https://imagej.nih.gov/ij/plugins/colocalization-finder.html) that calculated the ratio of βcatenin over MAP2 and DAPI in each cell. The average ratio that was determined for control vehicle-treated cells was set to 1 and respective folds of treated cells were calculated accordingly.
# GSK-3β [2] = biological target: T1, GSK-3β (Oryctolagus cuniculus, UniProt A0A5F9DUX8); assay: In vitro GSK-3β kinase assay (ELISA-based, IRS-1 peptide substrate); assay type: biochemical, rabbit; settings: for IC50: GSK-3β inhibition, 10 μM ATP; for IC50 / GSK-3β inhibition (in words): in vitro kinase assay; for GSK-3β inhibition (in words): screening hits; for Effect of Triton ×100 on inhibition of GSK-3β: 20 μM, 0.05% Triton ×100 (colloidal aggregation control)
# T1 sequence (A0A5F9DUX8 entry or part of it): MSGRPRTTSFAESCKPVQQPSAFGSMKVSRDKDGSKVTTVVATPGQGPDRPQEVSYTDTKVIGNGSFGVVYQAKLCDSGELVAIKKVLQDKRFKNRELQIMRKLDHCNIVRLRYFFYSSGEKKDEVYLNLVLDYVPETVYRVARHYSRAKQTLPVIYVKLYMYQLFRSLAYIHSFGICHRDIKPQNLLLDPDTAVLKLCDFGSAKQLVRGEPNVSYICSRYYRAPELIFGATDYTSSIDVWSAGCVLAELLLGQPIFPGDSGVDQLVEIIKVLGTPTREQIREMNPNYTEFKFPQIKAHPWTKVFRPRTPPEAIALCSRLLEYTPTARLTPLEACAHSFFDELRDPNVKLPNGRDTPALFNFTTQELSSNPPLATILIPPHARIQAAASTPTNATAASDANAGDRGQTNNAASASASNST
# Experimental: (§1) An ELISA-based assay was developed in our laboratory to measure GSK-3 activity. In brief, biotin-labelled IRS-1 peptide substrate was bound to streptavidin-coated 96-well microplates. A GSK-3 assay solution (0.1 μg GSK-3β, 20 mM Tris (pH 7.3), 10 mM MgCl2, and 10 μM ATP) was added to each well, together with the candidate compound at indicated concentrations, and the plates were incubated for 15 min at 30 °C. After having been washed (PBS 0.05% tween), the plates were incubated with a specific anti-phospho IRS-1 antibody (Ser^332) (1:2000), followed by HRP-secondary antibody (1:8000). The signal was developed with TMB solution (abcam, Cambridge UK, Cat# ab210902), stopped with H2SO4, and monitored in a plate reader ([…]). Assays were conducted in duplicates in three independent experiments. In the ATP competitive, or, substrate competitive assays, the assays (60 μL) were performed in Eppendorf tubes (to use “unbound” substrate), and 10–20 μL were spotted on the streptavidin-coated plates. Km values were calculated from the non-linear curve fit, and Ki values were calculated by Kapp = Km (1 + [I]/Ki). Bacterially expressed His-tagged rabbit GSK-3β was purified as described, and purified human GSK-3α was purchased from abcam (Cat# ab42597). The selectivity of compound 4-4 against a collection of protein kinases was assayed at the International Center for Kinase Profiling at the MRC unit, University of Dundee, UK.
# GSK-3β-F93A mutant = assay: In vitro kinase assay with GSK-3β-F93A mutant; assay type: biochemical
# Description: To further confirm that compounds interact with the GSK-3β substrate binding site, we performed in vitro kinase assays with the GSK-3β-F93A mutant in which Phe 93 was replaced by alanine. […] This, in contrast, to SB216763, an established GSK-3 ATP competitive inhibitor [46] that inhibited both wild-type (WT) and the F93A mutant (Figure 3B).
# as §1
# GSK-3β [3] = biological target: T1, GSK-3β; assay: Michaelis Menten ATP competitive and substrate competitive assays; assay type: biochemical, rabbit; settings: Lineweaver-Burk plots; for Mode of inhibition versus substrate: lines intersect at the Y-axis
# Experimental: We next performed Michaelis Menten competitive assays to examine the ability of 4-3 or 4-4 to compete with ATP or with substrates. […] Subsequently, Michaelis Menten substrate competitive assays were performed and data were analyzed by Lineweaver–Burk plots (Figure 6B). […] The calculated ki values were 7.7 ± 3 and 7.0 ± 0.2 for 4-3 and 4-4 respectively. […] While most of our experiments concentrated on GSK-3β, we also tested the inhibition of GSK-3α by compounds 4-1 through 4-5. […] Inhibition of GSK-3β by 4-3 or 4-4 was not affected by the detergent (Figure 6E). As a final caveat, we evaluated the selectivity of our leading compound 4-4.
# as §1
# 30 protein kinases = assay: Selectivity against a collection of protein kinases (International Center for Kinase Profiling, Dundee); assay type: biochemical; settings: 10 μM
# Experimental: An ELISA-based assay was developed in our laboratory to measure GSK-3 activity. In brief, biotin-labelled IRS-1 peptide substrate was bound to streptavidin-coated 96-well microplates. A GSK-3 assay solution (0.1 μg GSK-3β, 20 mM Tris (pH 7.3), 10 mM MgCl2, and 10 μM ATP) was added to each well, together with the candidate compound at indicated concentrations, and the plates were incubated for 15 min at 30 °C. After having been washed (PBS 0.05% tween), the plates were incubated with a specific anti-phospho IRS-1 antibody (Ser^332) (1:2000), followed by HRP-secondary antibody (1:8000). The signal was developed with TMB solution (abcam, Cambridge UK, Cat# ab210902), stopped with H2SO4, and monitored in a plate reader ([…]). Assays were conducted in duplicates in three independent experiments. In the ATP competitive, or, substrate competitive assays, the assays (60 μL) were performed in Eppendorf tubes (to use “unbound” substrate), and 10–20 μL were spotted on the streptavidin-coated plates. Km values were calculated from the non-linear curve fit, and Ki values were calculated by Kapp = Km (1 + [I]/Ki). Bacterially expressed His-tagged rabbit GSK-3β was purified as described, and purified human GSK-3α was purchased from abcam (Cat# ab42597). […]
# [4] = test system: Mouse hippocampal primary neurons; assay: Tau (Ser 396) phosphorylation in hippocampal primary neurons (immunoblot); assay type: cell-based; settings: 20 μM, 4 h
# Experimental: Hippocampi were isolated from C57BL6/J mice (0–1 day old), and tissues were digested with trypsin type XI (Sigma, Rehovot, Israel, Cat # T1005), and DNase type IV (Sigma, cat #D5025). Cells were suspended in a plating medium including MEM supplemented with 10% FBS, transferrin (0.089 mg/m), GlutaMAX (0.75 U/mL) (Sigma, Cat # 35050-038), insulin (16 μM) (Roche, Basel, Switzerland, Cat # 45865100), and SM1 neuronal supplement (STEMCELL, Seattle, WA, USA, Cat # 05711), and plated on glass coverslips coated with Matrigel (Corning, NY, USA, Cat# 356234) in a 24-well plate. The day after plating and twice a week thereafter half of the medium was removed and was replaced with by fresh feeding medium (plating medium lacking insulin and containing Ara-C (3 μM)) (Sigma, Cat# C6645).
# Equal amounts of proteins (30–50 μg) were subjected to SDS PHAGE gel electrophoresis, transferred to nitrocellulose membranes, and immunoblotted with selected antibodies followed by incubation with HRP-linked anti-rabbit, or, anti-mouse IgG (Cell signaling, MA, USA, and Jackson Immune Research, PA, USA, respectively). ECL developed membranes were imaged in UVITEC Alliance biomolecular imaging, and densitometry analysis of respected bands was analyzed with software provided by the vendor. Representative protein bands were taken from the same gel, and each gel represents three independent experiments. […]
# SH-SY5Y cells = assay: Cytoplasmic β-catenin levels in SH-SY5Y cells (immunoblot); assay type: cell-based, human; settings: 4 h
# Experimental: To verify the potential biological activity of our SCI compounds, we tested their ability to inhibit cellular GSK-3. We focused on the SCI compound 4-4 that was the best inhibitor of the five molecules that were tested (4-1–4-5) β-catenin, which is a central Wnt signaling component, and a well-established GSK-3 target. β-catenin phosphorylation by GSK-3 triggers its rapid proteasomal degradation. We, therefore, studied potential alterations in β-catenin levels following treatment with 4-4. Human neuroblastoma SH-SY5Y cells were treated with increasing concentrations of 4-4, and the levels of β-catenin were determined in the cytoplasmic fraction (prepared after cell permeabilization and sup collection), this to avoid possible “masking” of membrane-associated β-catenin. […]
# Equal amounts of proteins (30–50 μg) were subjected to SDS PHAGE gel electrophoresis, transferred to nitrocellulose membranes, and immunoblotted with selected antibodies followed by incubation with HRP-linked anti-rabbit, or, anti-mouse IgG (Cell signaling, MA, USA, and Jackson Immune Research, PA, USA, respectively). ECL developed membranes were imaged in UVITEC Alliance biomolecular imaging, and densitometry analysis of respected bands was analyzed with software provided by the vendor. […]
molecule,measurement,setting,value
"Cc1c[nH]c(-c2cnc(NCCNc3ccc(C#N)cn3)nc2-c2ccc(Cl)cc2Cl)n1 [CHIR9920, reference compound]",β-catenin levels in soma and dendrites of neurons,[1],significant increase
Cc1sc2nc3c(SC(C)C(=O)O)cc(C(=O)c4ccccc4O)cn3c(=O)c2c1C (stereo not shown) [Compound 1-6],IC50,GSK-3β [2],200 ± 30 µM
O=C(O)CC1S/C(=N/N=C/c2cc(Br)ccc2OCc2ccc(Cl)cc2)NC1=O (stereo not shown) [Compound 1-7],IC50,GSK-3β [2],180 ± 20 µM
O=C(O)CCCNc1cc(N2CCN(c3ccc(F)cc3)CC2)c2noc3c2c1C(=O)c1ccccc1-3 [Compound 2-1],GSK-3β inhibition (in words),GSK-3β [2],best GSK-3β inhibitors
O=C(O)CCCNc1cc(N2CCN(C(=O)c3ccco3)CC2)c2noc3c2c1C(=O)c1ccccc1-3 [Compound 2-2],IC50,GSK-3β [2],21 ± 4 µM
same,GSK-3β inhibition (in words),GSK-3β [2],best GSK-3β inhibitors
O=C(O)CCNc1cc(N2CCN(C(=O)c3ccco3)CC2)c2noc3c2c1C(=O)c1ccccc1-3 [Compound 3-5],IC50,GSK-3β [2],> 21 µM
O=C(O)CCNc1cc(N2CCN(c3ccc(F)cc3)CC2)c2noc3c2c1C(=O)c1ccccc1-3 [Compound 3-8],IC50,GSK-3β [2],8 ± 3 µM
O=C(O)CNc1cc(N2CCC(c3ccccc3)CC2)c2noc3c2c1C(=O)c1ccccc1-3 [Compound 3-9],IC50,GSK-3β [2],> 21 µM
CCOC(=O)C1CCCN(c2cc(Nc3ccc(C(=O)O)cc3)c3c4c(onc24)-c2ccccc2C3=O)C1 (stereo not shown) [Compound 3-13],IC50,GSK-3β [2],> 21 µM
O=C(O)c1ccc(N2CCN(c3cc(NCCP(=O)(O)O)c4c5c(onc35)-c3ccccc3C4=O)CC2)cc1 [Compound 4-3],Effect of Triton ×100 on inhibition of GSK-3β,GSK-3β [2],not affected
same,IC50,GSK-3β [2],1 to 4 µM
same,Inhibition of F93A mutant,GSK-3β-F93A mutant; 20 μM each,did not inhibit
same,Mode of inhibition versus ATP,GSK-3β [3],non-competitive inhibitors for ATP
same,Mode of inhibition versus substrate,GSK-3β [3],substrate competitive inhibitors
O=C1c2ccccc2-c2onc3c(N4CCN(c5ccc(O)cc5)CC4)cc(NCCP(=O)(O)O)c1c23 [Compound 4-4],Effect of Triton ×100 on inhibition of GSK-3β,GSK-3β [2],not affected
same,IC50,GSK-3β [2],1 to 4 µM
same,Selectivity over 30 protein kinases,30 protein kinases,showed specificity toward GSK-3α and GSK-3β
same,Phosphorylation of tau (Ser 396),[4],reduced
same,Cytoplasmic β-catenin at higher doses,SH-SY5Y cells; 10 μM,reduction
same,Concentration sufficient to activate β-catenin in the cytoplasm,SH-SY5Y cells,1 to 5 µM
same,β-catenin levels in soma and dendrites of neurons,[1],significant increase
same,Inhibition of F93A mutant,GSK-3β-F93A mutant; 20 μM each,did not inhibit
same,Mode of inhibition versus ATP,GSK-3β [3],non-competitive inhibitors for ATP
same,Mode of inhibition versus substrate,GSK-3β [3],substrate competitive inhibitors
"Cn1cc(C2=C(c3ccc(Cl)cc3Cl)C(=O)NC2=O)c2ccccc21 [SB216763, reference compound]",Inhibition of wild-type (WT) GSK-3β,GSK-3β [2]; 1 μM,inhibited
same,Inhibition of F93A mutant,GSK-3β-F93A mutant; 1 μM,inhibited
"KEAPPSPPQS(p)PF [Compound L803F, reference compound]",Inhibition of F93A mutant,GSK-3β-F93A mutant; 20 μM each,barely inhibited
